How the values were obtained:
HCT116 MTAP null cells = assay: HCT116 MTAP null cell line proliferation / cell viability (CellTiter-Glo, 6 days); assay type: cell-based; settings: 144 h; HCT116 MTAP null cells, 6 days treatment, CellTiter-Glo cell viability; read-out: HCT-116 MTAP null IC50
Method in brief: (§1)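 Anti-proliferative IC50s were derived from CellTiter-Glo signal in HCT116 parent and MTAP-null cells after six days on compound. Serial dilutions reached top concentrations of 1, 10 or 50 μM, with DMSO-only wells as control.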

HCT116 WT cells = assay: HCT116 WT (parent) cell line proliferation / cell viability (CellTiter-Glo, 6 days); assay type: cell-based; settings: Homo sapiens, HCT-116, 144 h, 6 days treatment
Method in brief: as §1

SMILES | IC50 (HCT116 MTAP null cells) [nM] | IC50 (HCT116 WT cells) [nM]
CN(C(=O)c1ccc2nc(N)c3cnn(C)c3c2c1)[C@@H]1COc2cc(-c3cn[nH]c3)ccc21 [Example 622, (S)—N-(6-(1H-pyrazol-4-yl)-2,3-dihydrobenzofuran-3-yl)-4-amino-N,1-dimethyl-1H-pyrazolo[4,3-c]quinoline-8-carboxamide] | 14 | 877
CN(C(=O)c1ccc2nc(N)c3cnn(C)c3c2c1)[C@@H]1COc2cc(C3COC3)ccc21 [Example 625, 4-amino-N,1-dimethyl-N-((3S)-6-(3-oxetanyl)-2,3-dihydro-1-benzofuran-3-yl)-1H-pyrazolo[4,3-c]quinoline-8-carboxamide] | 29 | 2320
CN(C(=O)c1ccc2nc(N)c3cnn(C)c3c2c1)[C@@H]1COc2cc(-c3ccn(C)n3)ccc21 [Example 631, 4-amino-N,1-dimethyl-N-((3S)-6-(1-methyl-1H-pyrazol-3-yl)-2,3-dihydro-1-benzofuran-3-yl)-1H-pyrazolo[4,3-c]quinoline-8-carboxamide] | 23 | 2530
Cc1cc(-c2ccc3c(c2)OC[C@H]3N(C)C(=O)c2ccc3nc(N)c4cnn(C)c4c3c2)co1 [Example 632, 4-amino-N,1-dimethyl-N-((3S)-6-(5-methyl-3-furanyl)-2,3-dihydro-1-benzofuran-3-yl)-1H-pyrazolo[4,3-c]quinoline-8-carboxamide] | 26 | 841
Cc1cc(-c2ccc3c(c2)OC[C@H]3N(C)C(=O)c2ccc3nc(N)c4cnn(C)c4c3c2)on1 [Example 633, 4-amino-N,1-dimethyl-N-((3S)-6-(3-methyl-1,2-oxazol-5-yl)-2,3-dihydro-1-benzofuran-3-yl)-1H-pyrazolo[4,3-c]quinoline-8-carboxamide] | 8 | 672
CN(C(=O)c1ccc2nc(N)c3cnn(C)c3c2c1)[C@@H]1COc2cc(C3=CCCOC3)ccc21 [Example 634, 4-amino-N-((3S)-6-(5,6-dihydro-2H-pyran-3-yl)-2,3-dihydro-1-benzofuran-3-yl)-N,1-dimethyl-1H-pyrazolo[4,3-c]quinoline-8-carboxamide] | 8 | 524

The next compounds have a lower IC50 (HCT116 MTAP null cells) than those just listed; values first:

IC50 (HCT116 MTAP null cells) [nM] | IC50 (HCT116 WT cells) [nM] | SMILES
6 | 384 | CN(C(=O)c1ccc2nc(N)c3cnn(C)c3c2c1)[C@@H]1COc2cc(-c3ccoc3)ccc21 [Example 626, 4-amino-N-((3S)-6-(3-furanyl)-2,3-dihydro-1-benzofuran-3-yl)-N,1-dimethyl-1H-pyrazolo[4,3-c]quinoline-8-carboxamide]
4 | 136 | CN(C(=O)c1ccc2nc(N)c3cnn(C)c3c2c1)[C@@H]1COc2cc(-c3ccncc3)ccc21 [Example 627, 4-amino-N,1-dimethyl-N-((3S)-6-(4-pyridinyl)-2,3-dihydro-1-benzofuran-3-yl)-1H-pyrazolo[4,3-c]quinoline-8-carboxamide]
5 | 511 | CN(C(=O)c1ccc2nc(N)c3cnn(C)c3c2c1)[C@@H]1COc2cc(-c3cccnc3)ccc21 [Example 628, 4-amino-N,1-dimethyl-N-((3S)-6-(3-pyridinyl)-2,3-dihydro-1-benzofuran-3-yl)-1H-pyrazolo[4,3-c]quinoline-8-carboxamide]
4 | 691 | CN(C(=O)c1ccc2nc(N)c3cnn(C)c3c2c1)[C@@H]1COc2cc(-c3cnn(C)c3)ccc21 [Example 629, 4-amino-N,1-dimethyl-N-((3S)-6-(1-methyl-1H-pyrazol-4-yl)-2,3-dihydro-1-benzofuran-3-yl)-1H-pyrazolo[4,3-c]quinoline-8-carboxamide]
3 | 222 | CN(C(=O)c1ccc2nc(N)c3cnn(C)c3c2c1)[C@@H]1COc2cc(-c3ccnn3C)ccc21 [Example 630, 4-amino-N,1-dimethyl-N-((3S)-6-(1-methyl-1H-pyrazol-5-yl)-2,3-dihydro-1-benzofuran-3-yl)-1H-pyrazolo[4,3-c]quinoline-8-carboxamide]

Source: US20240124442A1, “TRICYCLIC-AMIDO-BICYCLIC PRMT5 INHIBITORS” (AMGEN INC., priority 2021, published 2024)
